Key:
stomatin = target: T1, stomatin (Mus musculus, UniProt P54116); test: BiFC assay of stomatin self-association; type: cell-based
T1 construct: expressed in transfected cells; host or cells: HEK293 (general statement on the BiFC assay)
Description: FIG. 8: Effects of STOML3 modulating molecules on other Stomatin-domain proteins. (a) BiFC signal development observed when cells were transfected with Stomatin-VC/-VN, STOML1-VC/-VN, STOML2-VC/-VN, STOML3-VC/-VN or Podocin-VC/-VN expression constructs respectively. […] (b) OB-1 was tested at two different concentrations (2 μm and 20 μm) using the BiFC assay where wild type STOML3 was used as both bait and prey.
In mammals STOML3 belongs to a family of five structurally conserved membrane proteins, including stomatin, STOML1, STOML2, and podocin^10,12-16, all of which self-associate via their stomatin-domain (FIG. 8a)^10. Self-association of stomatin-domain proteins can be monitored in HEK293 cells using Bimolecular Fluorescence Complementation (BiFC) whereby N- and C-terminal halves of the YFP molecule are tagged to the prey and bait protein STOML3^2,17 (FIG. 1a). Irreversible association of the YFP fragments produces fluorescence that increases linearly over time (FIG. 1b).

hsSTOML3 = target: T2, hsSTOML3 (Homo sapiens, UniProt Q8TAV4); test: TriGFP assay of hsSTOML3 self-association in N2a cells, flow cytometry; type: cell-based; conditions: 20 μM, 16 h, vs vehicle
T2 construct: expressed in transfected cells; host or cells: N2a
Description: (a) The assay is based on the tripartite association between the two twenty amino-acids long GFP tags GFP10 and GFP11, which were fused to hsSTOML3 protein partners, and the complementary GFP1-9 detector (Reference 50). When hsSTOML3 proteins interact, GFP10 and GFP11 self-associate with GFP1-9 and reconstitute functional GFP.
N2a cells were cultured in 6-well plates to approximately 70% confluence; cells were co-transfected with plasmids encoding GFP1-9, STOML3-GFP10 and STOML3-GFP11 using PEI, as per manufacturer's instructions. The transfection reaction was allowed to proceed for 8 h before compound incubation at 20 μM final concentration. Twenty-four hours after transfection cells were collected, fixed with 4% PFA for 10 minutes and resuspended in PBS. Cell suspensions were used for flow cytometry analysis.
In this assay, N2a cells were co-transfected with plasmids encoding GFP1-9, STOML3-GFP10 and STOML3-GFP11 and incubated with either vehicle (0.4% DMSO) or OB-1 derivatives at 20 μM final concentration for 16 h. Twenty-four hours after transfection cells were collected, fixed with 4% PFA and resuspended in PBS.

head-restrained mice = test: Tactile perception task for head-restrained mice; type: in vivo, mouse
Description: Male C57B16/J mice were anaesthetized and a lightweight metal headholder was implanted to the skull using glue (Loctite 401, Henkel) and dental cement (Paladur®, Heraeus). Mice were habituated to the head-restraint and the behavioral setup over 1-2 days. Mouse licking and forepaw behavior was monitored with three custom-made capacitance sensors: a licking sensor, a rest sensor and a target sensor that provided an online monitor of paw or tongue contact. The rest sensor was a ball (diameter: 6 mm) mounted on a glass rod of 30 mm length, glued to a piezoelectric bender (PICMA® Multilayer Piezo Bender Actuator, Physik Instrumente). The piezo generated a 30 ms cosine tactile pulse via a piezo amplifier system (Sigmann Elektronik). A urethane foam buffer (Poron®, Rogers Cooperation) was placed between the piezo and the supporting platform to reduce ringing oscillations after the stimulus pulse. The stimulus amplitude was calibrated with a high-speed (300 Hz) camera (Dalsa Genie HM640). […] Mice were water restricted and given approximately 4×0.6 μl water rewards on condition of touching the target sensor within a defined latency from stimulus onset and licking the water dispenser. The target sensor moved to the start position at the start of a new trial and away from the mouse at the end of the trial. Inter-trial interval was randomized between 7 and 13 s. […]

[1] = test system: mice with chronic constriction injury; test: Chronic constriction injury (CCI) model, paw withdrawal thresholds to von Frey filaments; type: in vivo, mouse
Text: In deeply anaesthetized mice using isoflurane delivered in 100% 02 (Univentor 410 Anaesthesia unit; Univentor, Malta), four loose silk (5/0; Catgut GmbH Markneukirchen) ligatures were placed around the sciatic nerve at the level of the right mid-thigh as described previously (Wetzel et al., 2007).
(§1) Mice were allowed to habituate to the testing apparatus (acrylic chambers 10×10 cm in size, suspended above a wired mesh grid) one hour prior to behavioral testing. Only once the subject was at rest and not moving, calibrated von-Frey hair monofilaments (Aesthesio® set of 20 monofilaments, Ugo Basil) were applied to the plantar surface of the hind paw in order to deliver target forces from 0.008 grams to 4 grams increasing in an approximately logarithmic scale. A single stimulus indicated by a slight bending of the filament lasted for two seconds unless the mouse withdrew its paw. In order to measure mechanosensitivity the up-and-down method described by Chaplan^13 was adapted as follows: Testing began with a filament delivering a target force of 0.4 g, but filaments were applied three times. A positive response was noted if the subject withdrew the paw to all three filament applications, so that the successively smaller filament was presented next. […] Paw withdrawal thresholds were calculated as median of 23 to 30 determined turning points of the particular force stimuli applied to the subject.
Drug injections of OB-1 or DMSO alone were dissolved in Ringer's solution (in mM: 135 NaCl, 5 KCl, 5 HEPES, 1.8 CaCl2), 1 MgCl2) to make the OB-1 and vehicle solution. Injections were made 3 hours prior to behavioral testing, approximately 20 μl solution, 250 pmol per paw, was injected into the palm with a Hamilton syringe, gauge 33. During the injection procedure, the mouse was anaesthetized with isoflurane (1.5 to 2.5% in 02). The injection procedure lasted around 3 minutes after which the mouse was moved to the home cage for recovery before behavioral testing.
(§2) We next interrogated whether local application of OB-1 can ameliorate tactile-evoked pain behavior in neuropathic models. […] We decided to test this idea more directly by testing the effects of local OB-1 on the mechanical sensitivity of Stoml3^−/− mice with CCI. […] Off-target effects are an issue for any biologically active small molecule. We therefore tested the effects of 20 μM OB-1 in a commercially available in vitro pharmacology panel (www.cerep.fr) consisting of 79 receptors and ion channels.

[2] = test system: cutaneous sensory afferents of the saphenous nerve; test: Ex vivo skin-nerve preparation after local injection into the paw; type: in vivo, mouse; conditions: recordings 24 h after treatment
[3] = test system: 79 receptors and ion channels; test: Commercial in vitro pharmacology panel (cerep); type: binding; conditions: 20 μM, panel of 79 receptors and ion channels
Description: as §2

diabetic mice (STZ) = test: Streptozotocin (STZ) painful diabetic neuropathy model, von Frey; type: in vivo, mouse
Description: Eight week old C57Bl/6 mice were used for diabetes experiments. Diabetes was induced. Briefly, 6 consecutive intraperitoneal injections of streptozotocin (STZ, Sigma-Aldrich, #S0130) were given with 24 h intervals at 60 mg/Kg body weight in citrate buffer (0.05M, pH 4.5) to induce diabetes. Blood glucose was maintained between 400 and 500 mg/dL throughout the experimental period. Mechanical sensitivity was measured in regular intervals and only those mice showing increased sensitivity to von Frey filaments as compared with basal sensitivity were selected for testing the effects of OB-1.
Von Frey filaments of increasing strength (0.07, 0.16, 0.4, 0.6, 1.0 and 1.4 g) are applied 5 times with at least 1 min interval to intraplantar surface of hind paws to test the mechanical sensitivity. […] Frequency of positive responses was recorded out of 5 stimuli and percent of withdrawal frequency was calculated. Threshold was calculated as the von Frey filament strength required to elicit 60% withdrawal frequency. Vehicle or OB-1 (approximately 20 μl solution, 250 pmol per paw) was injected subcutaneously into intraplantar surface of diabetic mice under mild isoflurane anesthesia and mechanical sensitivity was measured from both injected (ipsilateral) and non-injected (contralateral) paws at 4 and 24 h post-injection.

naive mice = test: Paw withdrawal threshold and radiant heat latency in naive mice; type: in vivo, mouse; conditions: intraplantar 250-500 pmol per paw
Text: as §1
Drug injections of OB-1 or DMSO alone were dissolved in Ringer's solution (in mM: 135 NaCl, 5 KCl, 5 HEPES, 1.8 CaCl2), 1 MgCl2) to make the OB-1 and vehicle solution. […]

NGF-injected mice = test: NGF-induced hyperalgesia; type: in vivo, mouse
Text: as §1

T1 sequence (P54116 whole entry): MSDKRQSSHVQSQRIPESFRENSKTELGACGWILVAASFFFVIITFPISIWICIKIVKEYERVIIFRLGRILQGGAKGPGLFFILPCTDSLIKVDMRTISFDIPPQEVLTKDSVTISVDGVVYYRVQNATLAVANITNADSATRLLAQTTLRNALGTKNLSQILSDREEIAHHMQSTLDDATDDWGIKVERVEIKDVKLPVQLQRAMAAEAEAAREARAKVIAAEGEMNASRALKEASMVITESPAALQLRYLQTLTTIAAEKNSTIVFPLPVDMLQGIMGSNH
T2 sequence (Q8TAV4 whole entry): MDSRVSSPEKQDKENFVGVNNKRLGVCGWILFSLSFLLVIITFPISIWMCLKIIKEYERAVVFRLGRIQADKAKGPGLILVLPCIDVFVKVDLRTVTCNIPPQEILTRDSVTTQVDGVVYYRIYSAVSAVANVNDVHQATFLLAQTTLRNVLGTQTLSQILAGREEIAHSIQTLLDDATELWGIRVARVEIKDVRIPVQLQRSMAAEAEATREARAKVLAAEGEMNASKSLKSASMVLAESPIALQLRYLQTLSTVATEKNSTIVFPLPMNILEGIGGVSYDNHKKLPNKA

In the case of `CCOC(=O)c1c(-c2ccccc2)oc2ccc(Oc3c([N+](=O)[O-])ncn3C)cc12` [OB-1, Ethyl 5-((1-methyl-4-nitro-1H-imidazol-5-yl)oxy)-2-phenylbenzofuran-3-carboxylate], the “self-association of stomatin (BiFC)” value (stomatin) was “effective inhibitor”, the “hsSTOML3 self-association (GFP signal intensity)” value (hsSTOML3) was “strongly reduce” and the “psychometric curve of tactile stimulus detection” value (head-restrained mice; 11 nmol per paw into forepaw, stimulus strengths 125-275 μm) was “shifted to the right”. For the same compound, the “time for detection rates of threshold stimuli to return to pre-treatment levels” value (head-restrained mice; after drug treatment) was 1 to 4 days, the “effect of a single dose after 24 h” value ([1]; CCI) was “absent” and the “time of maximal effect after a single local injection” value ([1]; CCI) was 3 h. For the same compound, the established hypersensitivity ([1]; CCI, applied to the contralateral paw) was “no reversal”, the “half-maximal effective dose (ED50)” value ([1]; CCI, paw withdrawal threshold, local injection) was 4.42 µM and the “half-maximal effective dose (ED50)” value ([1]; CCI, per paw) was “approximately 20 pmol”. For the same compound, the paw withdrawal threshold ([1]; Stoml3−/− mice with CCI, local treatment of neuropathic paws) was “no change”, the mechanical hypersensitivity ([1]; female mice with CCI, similar extent to males) was “reversed” and the “tactile-evoked pain or allodynia” value ([1]; wild type mice, CCI 6-21 days after induction, intraplantar ipsilateral) was “complete reversal”. The “mechanoreceptor silencing effect, reversibility” value [2] was “completely reversible”, the “receptors with significant inhibition of specific ligand binding” value [3] was 6/79 and the mechanical hypersensitivity (diabetic mice (STZ); 250 pmol per paw, 4 h after treatment) was “substantially reversed”. The “mechanical hypersensitivity, mean 60% withdrawal threshold” value (diabetic mice (STZ); 24 h after a single treatment) was “returned to pre-drug treatment levels”, the “paw withdrawal thresholds to mechanical stimuli” value (naive mice) was “no change” and the “withdrawal latency for radiant heat stimuli” value (naive mice) was “no change”. The “mechanical hypersensitivity after NGF” value (NGF-injected mice; local intraplantar) was “not reversed” and the NGF-induced thermal hyperalgesia (NGF-injected mice; local treatment, systemic NGF-injection) was “not alleviate”.

Source: patent US11384071B2, “Inhibitors of mechanotransduction to treat pain and modulate touch perception” (Max-Delbrück-Centrum für Molekulare Medizin in der …, priority 2016, dated 2022)
